Data published in the supplement of paper PMC10307832.

What was measured:
Assay in all cases: relative viability (nuclei count vs DMSO), 5 days (fraction); higher = more cells survive
[1] = compound: OCc1c[nH]c2ccccc12 [Indole-3-carbinol] + CS(=O)(=O)N1CCN(Cc2cc3nc(-c4cccc5[nH]ncc45)nc(N4CCOCC4)c3s2)CC1 [Pictilisib] (partner 1 µM)
In short: (§1)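 Five library-drug doses in √10 steps were combined with a fixed anchor-drug dose, or a single drug was given alone, by pin tool to lung cancer cell lines in 1536-well plates the day after seeding. Nuclei were stained and counted after 5 days. Relative viability is the nuclei count in treated wells over that in vehicle wells, taken as the median of duplicate plates.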

[2] = compound: OCc1c[nH]c2ccccc12 [Indole-3-carbinol] + CS(=O)(=O)CCNCc1ccc(-c2ccc3ncnc(Nc4ccc(OCc5cccc(F)c5)c(Cl)c4)c3c2)o1 [Lapatinib] (partner 2 µM)
In short: as §1

[3] = compound: OCc1c[nH]c2ccccc12 [Indole-3-carbinol] + Nc1nc2[nH]cc(CCc3ccc(C(=O)N[C@@H](CCC(=O)O)C(=O)O)cc3)c2c(=O)[nH]1 [Pemetrexed] (partner 0.2 µM)
In short: as §1

[4] = compound: OCc1c[nH]c2ccccc12 [Indole-3-carbinol] + CC(C)C[C@H](NC(=O)[C@H](Cc1ccccc1)NC(=O)c1cnccn1)B(O)O [Bortezomib] (partner 0.002 µM)
In short: as §1

[5] = compound: OCc1c[nH]c2ccccc12 [Indole-3-carbinol] + CC(=O)c1c(C)c2cnc(Nc3ccc(N4CCNCC4)cn3)nc2n(C2CCCC2)c1=O [Palbociclib] (partner 0.5 µM)
In short: as §1

Row | Cell Line | relative viability ([1]; first compound 0.253 µM) | relative viability ([1]; first compound 0.8 µM) | relative viability ([1]; first compound 2.53 µM) | relative viability ([1]; first compound 8 µM) | relative viability ([2]; first compound 0.253 µM) | relative viability ([2]; first compound 0.8 µM) | relative viability ([2]; first compound 2.53 µM) | relative viability ([2]; first compound 8 µM) | relative viability ([3]; first compound 0.253 µM) | relative viability ([3]; first compound 0.8 µM) | relative viability ([3]; first compound 2.53 µM) | relative viability ([3]; first compound 8 µM) | relative viability ([4]; first compound 0.253 µM) | relative viability ([4]; first compound 0.8 µM) | relative viability ([4]; first compound 2.53 µM) | relative viability ([4]; first compound 8 µM) | relative viability ([5]; first compound 0.253 µM) | relative viability ([5]; first compound 0.8 µM) | relative viability ([5]; first compound 2.53 µM) | relative viability ([5]; first compound 8 µM)
1 | HCC-15 | 0.714 | 0.773 | 0.735 | 0.719 | 0.965 | 0.951 | 0.893 | 0.829 | 0.214 | 0.226 | 0.205 | 0.235 | 1.08 | 1.08 | 1.1 | 1.06 | 0.804 | 0.773 | 0.733 | 0.724
2 | HCC-44 | 0.52 | 0.499 | 0.49 | 0.506 | 1.02 | 1.04 | 0.973 | 0.988 | 0.679 | 0.659 | 0.694 | 0.541 | 0.911 | 1.03 | 0.888 | 0.869 | 0.954 | 1.03 | 0.902 | 0.882
3 | HCC-78 | 0.202 | 0.205 | 0.192 | 0.196 | 0.97 | 0.645 | 0.768 | 0.664 | 0.89 | 0.947 | 0.929 | 0.891 | 0.416 | 0.51 | 0.403 | 0.554 | 0.486 | 0.498 | 0.471 | 0.462
4 | LCLC-103H | 0.546 | 0.537 | 0.702 | 0.476 | – | – | – | – | 0.444 | 0.493 | 0.462 | 0.468 | 1.06 | 1.14 | 1.2 | 0.958 | 0.492 | 0.48 | 0.451 | 0.405
5 | LK-2 | 0.475 | 0.46 | 0.977 | 0.628 | 0.883 | 0.864 | 1.13 | 1.04 | 0.273 | 0.216 | 0.313 | 0.358 | – | – | – | – | 0.674 | 0.489 | 1.05 | 0.703
6 | NCI-H358 | 0.408 | 0.354 | 0.344 | 0.32 | 0.519 | 0.422 | 0.42 | 0.423 | 0.17 | 0.161 | 0.182 | 0.185 | – | – | – | – | 0.145 | 0.125 | 0.136 | 0.12
7 | NCI-H441 | 0.479 | 0.491 | 0.539 | 0.508 | – | – | – | – | 0.235 | 0.283 | 0.254 | 0.245 | 0.367 | 0.938 | 0.381 | 0.375 | 0.202 | 0.267 | 0.249 | 0.185
8 | NCI-H522 | – | – | – | – | – | – | – | – | 0.979 | 1.12 | 1.08 | 1.04 | – | – | – | – | 0.87 | 1.02 | 1.31 | 1.15
9 | NCI-H596 | 0.368 | 0.416 | 0.364 | 0.411 | 1.05 | 0.779 | 0.936 | 0.985 | 0.474 | 0.508 | 0.517 | 0.486 | 0.996 | 0.773 | 0.987 | 1.01 | – | – | – | –
10 | NCI-H727 | 0.263 | 0.409 | 0.477 | 0.494 | 0.75 | 0.699 | 0.782 | 0.769 | – | – | – | – | 0.872 | 0.842 | 0.897 | 0.828 | 0.634 | 0.669 | 0.699 | 0.648
11 | NCI-H1395 | 0.616 | 0.67 | 0.639 | 0.662 | 1.04 | 0.873 | 0.931 | 0.829 | 0.848 | 0.868 | 0.78 | 0.845 | – | – | – | – | 0.625 | 0.589 | 0.734 | 0.531
12 | NCI-H1703 | – | 0.24 | 0.26 | 0.253 | 1.25 | 1.36 | 0.945 | 0.903 | – | – | – | – | 0.274 | 0.389 | 0.358 | 0.453 | – | – | – | –
13 | NCI-H1793 | 0.461 | 0.204 | 0.376 | 0.271 | 1.18 | 0.621 | 0.702 | 0.623 | 0.934 | 0.773 | 1.03 | 0.761 | – | – | – | – | 0.346 | 0.281 | 0.298 | 0.315
14 | NCI-H1944 | 0.329 | 0.3 | 0.348 | 0.301 | 0.856 | 0.606 | 0.922 | 0.843 | 0.663 | 0.539 | 0.649 | 0.641 | – | – | – | – | 0.338 | 0.279 | 0.304 | 0.311
15 | NCI-H2170 | 0.329 | 0.308 | 0.322 | 0.311 | 0.281 | 0.28 | 0.253 | 0.289 | 0.286 | 0.24 | 0.292 | 0.273 | – | – | – | – | 0.384 | 0.375 | 0.41 | 0.42
16 | NCI-H2342 | – | – | – | – | – | – | – | – | 0.757 | 0.738 | 0.751 | 0.742 | – | – | – | – | 0.516 | 0.516 | 0.498 | 0.535
17 | SK-MES-1 | 0.416 | 0.356 | 0.321 | 0.4 | 0.455 | 0.501 | 0.452 | 0.421 | 0.926 | 1.01 | 0.927 | 0.939 | – | – | – | – | 0.292 | 0.299 | 0.318 | 0.313
